The values below come from publication PMC12631437, “Evaluation of the Activity of 4‑Quinolones against Multi-Life Stages of Plasmodium spp” (ACS Omega, 2025).

In experiment [1] the test system is P. falciparum SB1-A6 strain. Nature of the experiment: SYBR Green growth assay, asexual blood stages, SB1-A6 strain. The experiment is classed as cell-based, Plasmodium falciparum. The procedure: (§1) Healthy blood samples for parasite culture were obtained from voluntary donors (approved under protocol #28176720.9.0000.0011), processed to remove white blood cells, and stored at 2 °C–8 °C for up to 15 days. Parasite strains SB1-A6, 7G8, V1/S, and HB3 were acquired from BEI-MR4, while the ATQ R1 strain, carrying a V259L gene mutation, was generated in-house. Infected erythrocytes were cultured in RPMI 1640 medium supplemented with Hepes, sodium bicarbonate, glucose, Albumax, and gentamicin, […], and incubated in a 5% CO2, 5% O2, and 90% N2 gas mixture at 37 °C with daily medium changes. Parasitemia was monitored using Giemsa-stained blood smears.
(§2) Bioassays were conducted with synchronized ring-stage parasites using sorbitol synchronization. Antimalarial compounds were evaluated in 96-well plates, and parasite growth was assessed using a SYBR Green-based fluorescence assay The assays were conducted when the parasite quantity reached at least 70% of the ring stage. Compounds were initially added at specific concentrations in the first wells, followed by serial dilution (1:2) ranging from 20 μM to 0.009 μM. Subsequently, a solution containing parasites in RPMI medium at a hematocrit of 2% was added to each well, and the parasites were then incubated for 72 h.
(§3) To assess parasite growth, the culture medium was replaced with a lysis solution (Trisbase: 49.31%, EDTA: 30.00%, Saponin: 0.16%, Triton: 0.02%) containing the fluorescent dye SYBR Green (Sigma). After a 30 min incubation, fluorescence readings were taken to determine the 50% inhibitory concentration (IC50) of parasite growth. The IC50 values were determined using concentration–response curves generated in GraphPad 8 software. Additionally, the resistance index was calculated by comparing IC50 values obtained for the sensitive 3D7 strain with those of the resistant strains.

A further experiment deals with P. falciparum HB3 strain. Nature of the experiment: SYBR Green growth assay, asexual blood stages, HB3 strain. To be noted: for IC50: Plasmodium falciparum. In kind it is cell-based, Plasmodium falciparum. The procedure: (§4) Parasite strains SB1-A6, 7G8, V1/S, and HB3 were acquired from BEI-MR4, while the ATQ R1 strain, carrying a V259L gene mutation, was generated in-house. […] Parasitemia was monitored using Giemsa-stained blood smears.
as §2
(§5) The IC50 values were determined using concentration–response curves generated in GraphPad 8 software. Additionally, the resistance index was calculated by comparing IC50 values obtained for the sensitive 3D7 strain with those of the resistant strains.

For a further experiment, the system named is P. vivax ookinetes. Nature of the experiment: Ex vivo P. vivax ookinete formation assay with patient isolates. In kind it is cell-based, Plasmodium vivax. The settings on record: 24 h. The procedure:
Participants were recruited from patients diagnosed with P. vivax malaria via Giemsa-stained blood smears at CEPEM in Porto Velho, Rondônia, Brazil (#28176720.9.0000.0011). Criteria included: P. vivax parasitemia >2000 parasites/μL, age 18–85, no severe malaria, no concomitant diseases, nonpregnant, and consent to study procedures. Approximately 10 mL of venous blood was collected into heparin-coated vials, maintained at 37 °C, and transported to PIVEM for DMFA. Malaria treatment followed Brazilian Ministry of Health guidelines and was unaffected by study participation. […] Erythrocytes were washed with incomplete RPMI-1640 medium by centrifugation at 1500 rpm for 10 min to remove leukocytes. […] The sample was centrifuged once at 450 g for 15 min without a brake. After centrifugation, the pellet remaining at the interface was collected and washed twice at 2000 g for 5 min. […] The parasites were incubated for 24 h at a temperature of 21–24 °C. After this period, the activity of the compounds was determined by microscopy, counting 100 fields to determine the parasitemia per μL in each sample, and counting the mature and immature ookinetes. […] Red blood cells were then washed with incomplete RPMI-1640 medium through centrifugation at 1500 rpm for 10 min to remove leukocytes. […] The sample was centrifuged once at 2000 rpm for 15 min without brake. After centrifugation, the remaining pellet at the interface was collected and washed twice at 2000 rpm for 5 min. […] Parasites were incubated for 24 h at a temperature of 21–24 °C. After this period, compound activity was determined by microscopy counting in 100 fields to determine parasitemia per μL in each sample.

Experiment [2] deals with P. falciparum DHODH strain. Nature of the experiment: SYBR Green growth assay, asexual blood stages, DHODH resistant mutant. In kind it is cell-based, Plasmodium falciparum. The procedure: as §1, §2, §3
For experiment [3], the system named is P. falciparum V1/S strain. Nature of the experiment: microbe, parasite or virus in culture. The experiment is classed as cell-based, Plasmodium falciparum. The settings on record: for IC50: Plasmodium falciparum. As to the method:
as §1, §2, §3

In experiment [4] the test system is Plasmodium falciparum 3D7 sensitive strain. Briefly: SYBR Green growth assay, asexual blood stages, 3D7 sensitive strain. In kind it is cell-based. The procedure:
as §4, §2, §5

Experiment [5] relates to P. berghei exflagellation centers. Briefly: Ex vivo exflagellation assay, blood of P. berghei infected mice. To be noted: 15 min incubation. In kind it is cell-based, Plasmodium berghei. As to the method: For the ex vivo assays, a female CD1 mouse between 4 and 5 weeks of age (n = 3) was infected with P. berghei. After 4 days, when the presence of parasites (sexual phases) in the blood was observed by Giemsa-stained blood smear microscopy, the total blood from the mouse was collected into a preheated tube at 37 °C containing RPMI medium supplemented with 20% Fetal Bovine Serum (FBS) and 200 units/mL of heparin as an anticoagulant. The tube was maintained at 37 °C and centrifuged at 1500 rpm for 5 min. The supernatant was discarded, and the blood was resuspended in 20 mL of RPMI medium supplemented with 20% FBS.
One milliliter of resuspended blood was added to each well of a 6-well plate containing 5 μM methylene blue (positive control), test compound 1 at 10 μM and 1 μM, and DMSO (negative control). After 15 min, the wells were homogenized, and 10 μL of the content was collected into an Eppendorf tube and incubated at room temperature for another 15 min. The sample was then transferred to a Neubauer chamber, and exflagellation centers were counted using an optical microscope at 40× magnification.

Setting [6] is: Plasmodium vivax, read-out: P. vivax ookinete formation inhibition (median).
The mark [7] stands for this setting: Plasmodium falciparum, 3D7, 72 h, asexual blood stages, 3D7 sensitive strain, 72 h, read-out: IC50.
The mark [8] stands for this setting: asexual blood stages, 3D7 sensitive strain, 72 h, read-out: IC50.

For orientation: IC50 means the point on the concentration scale where inhibition reaches its midpoint. The inhibition is the share of the control response that was lost under treatment.

Values joined by “and” are separate entries in the source; they are usually repeats but may differ in a detail not shown here. Equal entries are not always repeated. Where two headings read alike, the source gives them in different places.

On to `CCCCCCCCCCCc1cc(=O)c2ccccc2[nH]1` [compound 1, 2-Undecilquinolin-4(1H)-one], for which the IC50 in experiment [1] (Plasmodium falciparum, 72 h) stood at 7000 ± 1000 nM; with P. falciparum HB3 strain (HB3, strain assigned by order of panels, read-out: IC50 (Figure S1)), 260 nM; in the experiment on P. falciparum HB3 strain (HB3 strain, 72 h, read-out: IC50), 430 ± 50 nM; in experiment [2] (Plasmodium falciparum, 72 h) it was 60 ± 10 nM; in experiment [3] (72 h), 800 ± 100 nM; in experiment [3] (read-out: IC50 (Figure S1)), 700 nM. Further, the IC50 came out at 270 nM in experiment [4] (Plasmodium falciparum, 3D7, 3D7, strain assigned by order of panels, read-out: IC50 (Figure S1)); 210 ± 40 nM in experiment [4] (setting [7]); 200 ± 100 nM in experiment [4] (setting [8]). For the same molecule, the “RI (resistance index)” value in experiment [1] (ratio of IC50 SB1-A6 to 3D7) is 35; with P. falciparum HB3 strain (ratio of IC50 HB3 to 3D7), 2.1; in experiment [2] (ratio of IC50 DHODH to 3D7), 0.3; in experiment [3] (ratio of IC50 V1S to 3D7), 4.0. The inhibition at 0.4 µM in the experiment with P. vivax ookinetes (Plasmodium vivax, 0.4 μM, read-out: P. vivax ookinete formation inhibition (median)) worked out at 70%. Also, in the experiment on P. vivax ookinetes (setting [6]), the inhibition at 2 µM was determined as 84%. The inhibition at 10 µM with P. vivax ookinetes (Plasmodium vivax, 10 μM, n = 6 patients, read-out: P. vivax ookinete formation inhibition (median)) worked out at 97%. Further, the “reduction of exflagellation centers (ex vivo)” value in experiment [5] (1 μM) is 23,8% and 24%; in experiment [5] (10 μM), 63,9% and 64%.
For the molecule `CCCCCCOc1ccc(-c2cc(=O)c3ccccc3[nH]2)cc1` [compound 6, 2-(4-(Hexyloxy)-phenyl)-quinolin-4(1H)-one], the “P. vivax ookinete formation inhibition (median)” value in the experiment on P. vivax ookinetes (0.4 μM) is on record as “no activity”. Besides, in the experiment on P. vivax ookinetes (setting [6]), the inhibition at 2 µM turned out to be 83%. Also, the IC50 in experiment [4] (setting [7]) was 560 ± 70 nM; in experiment [4] (setting [8]) it was 500 nM.
